Measurements as given in patent US20080269213A1, “8-Hydroxyquinoline compounds and methods thereof” (Wyeth, priority 2006, published 2008).
Where “and” joins values, the source holds several entries; their conditions need not be identical. Equal values may be shown once.

Molecular target: T1, recombinant human Aggrecanase-2 Agg2-Phe628 (Homo sapiens, UniProt Q9UNA0)
T1 sequence (Q9UNA0 262-628 limits assumed): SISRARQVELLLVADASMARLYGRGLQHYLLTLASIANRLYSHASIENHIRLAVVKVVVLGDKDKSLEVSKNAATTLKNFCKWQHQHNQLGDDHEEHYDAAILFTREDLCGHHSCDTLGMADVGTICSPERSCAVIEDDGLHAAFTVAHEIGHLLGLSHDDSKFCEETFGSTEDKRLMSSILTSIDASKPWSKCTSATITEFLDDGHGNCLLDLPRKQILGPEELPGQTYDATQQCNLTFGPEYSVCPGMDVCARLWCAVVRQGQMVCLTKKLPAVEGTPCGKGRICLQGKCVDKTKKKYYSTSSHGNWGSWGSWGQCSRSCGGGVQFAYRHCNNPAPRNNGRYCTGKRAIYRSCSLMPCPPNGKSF
Test: Aggrecanase 2 in vitro enzyme assay (Agg-2 FRET, quenched fluorescent peptide substrate)
Assay type: biochemical
Set-up: purified recombinant human Aggrecanase-2 Agg2-Phe628 (MW=41,737); This is a truncated form of full-length human aggrecanase-2; made in house; host or cells: CHO cells
Settings: for IC50: read-out: Agg-2 FRET Median IC50; for Agg-2 FRET Median PCT INHIB: concentration not given
Method: A continuous assay was used in which the substrate was a synthetic peptide containing a fluorescent group (o-aminobenzyl, Abz), which was quenched by energy transfer to a 2,4-dinitrophenyl group (Dnp). The buffer used in this assay was 50 mM HEPES, pH 7.5, 100 mM NaCl, 5 mM CaCl2, 0.1% CHAPS, 5% glycerol. The source of enzyme was purified recombinant human Aggrecanase-2 Agg2-Phe628 (MW=41,737). This is a truncated form of full-length human aggrecanase-2 that was expressed in CHO cells and purified. The final concentration of Agg2-Phe628 was 0.5 μg/ml. […] It is a synthetic peptide that is designed after a portion of brevican, one of the naturally occurring substrates of Aggrecanase-2, of the sequence Abz-[…]-Dap(Dnp)-KK—NH2 (mass=1740). The concentration of this substrate stock was spectrophotometrically determined using the extinction coefficient at 354 nm of 18,172 M^−1cm^−1. […] The final concentration of substrate in the assay was 25 μM.
Test compounds (in duplicate) were serially diluted from 2 mM to 0.01 μM in 100% DMSO. The total reaction volume was 100 μl. The buffer and enzyme were added first followed by addition of 10× inhibitor from the dilution plate. Enzyme and buffer alone samples were included in order to obtain the maximal rate of substrate cleavage. […] Then substrate was added, mixed and the reaction monitored for 40 min at 30° C. in kinetic mode using λex: 340 nm and % λem: 420 (GeminiXS Molecular Devices).

Molecule | IC50 | Agg-2 FRET Median PCT INHIB
O=C(COCc1ccccc1)NC(c1cccc(F)c1)c1cc(Cl)c2cccnc2c1O (stereo not drawn) [2-(benzyloxy)-N-[(5-chloro-8-hydroxyquinolin-7-yl)(3-fluorophenyl)methyl]acetamide] | 828 nM | 
Cc1ccc(C(NC(=O)CNc2ccc(C(C)(C)C)cc2)c2cc(Cl)c3cccnc3c2O)cc1 (stereo not drawn) [Example 27, N^2-(4-tert-butylphenyl)-N^1-[(5-chloro-8-hydroxyquinolin-7-yl)(4-methylphenyl)methyl]glycinamide] |  | 57%
CC(=O)NC(c1ccccc1)c1cc(Cl)c2cccnc2c1O (stereo not drawn) [N-[(5-chloro-8-hydroxyquinolin-7-yl)(phenyl)methyl]acetamide] | 19700 nM | 
CC(=O)NC(c1ccccc1)c1ccc2cccnc2c1O (stereo not drawn) [N-[(8-hydroxyquinolin-7-yl)(phenyl)methyl]acetamide] |  | 50%
Cc1ccccc1C(NC(=O)COc1ccccc1)c1cc(Br)c2cccnc2c1O (stereo not drawn) [N-[(5-bromo-8-hydroxyquinolin-7-yl)(2-methylphenyl)methyl]-2-phenoxyacetamide] | 1000 nM | 
O=C(CCCc1ccccc1)NC(c1ccccc1Cl)c1cc(Cl)c2cccnc2c1O (stereo not drawn) [N-[(5-chloro-8-hydroxyquinolin-7-yl)(2-chlorophenyl)methyl]-4-phenylbutanamide] |  | 48%
COc1cc(OC)cc(C(NC(=O)COc2ccccc2)c2cc(Cl)c3cccnc3c2O)c1 (stereo not drawn) [N-[(5-chloro-8-hydroxyquinolin-7-yl)(3,5-dimethoxyphenyl)methyl]-2-phenoxyacetamide] | 1090 nM | 
O=C(CCCc1ccccc1)NC(c1cccc([N+](=O)[O-])c1)c1cc(Cl)c2cccnc2c1O (stereo not drawn) [N-[(5-chloro-8-hydroxyquinolin-7-yl)(3-nitrophenyl)methyl]-4-phenylbutanamide] | 1150 nM | 
N-[(5-chloro-8-hydroxyquinolin-7-yl)(4-methoxyphenyl)methyl]-2-(4-methylphenoxy)acetamide [Example 80] | 774 nM | 
O=C(COc1ccc(Oc2ccccc2)cc1)NC(c1ccccc1)c1cc(Cl)c2cccnc2c1O (stereo not drawn) [Example 85, N-[(5-chloro-8-hydoxyquinolin-7-yl)(phenyl)methyl]-2-(4-phenoxyphenoxy)acetamide] |  | 50%
COc1cc(C(NC(=O)COc2ccccc2)c2cc(Cl)c3cccnc3c2O)ccc1O (stereo not drawn) [N-[(5-chloro-8-hydroxyquinolin-7-yl)(4-hydroxy-3-methoxyphenyl)methyl]-2-phenoxyacetamide] | 7300 nM | 
O=C(COc1ccccc1)NC(c1ccc(Cl)c(Cl)c1)c1cc(Cl)c2cccnc2c1O (stereo not drawn) [N-[(5-chloro-8-hydroxyquinolin-7-yl)(3,4-dichlorophenyl)methyl]-2-phenoxyacetamide] | 1360 nM | 
O=C(NC(c1ccccc1)c1ccc2cccnc2c1O)c1ccccc1 (stereo not drawn) [N-[(8-hydroxyquinolin-7-yl)(phenyl)methyl]benzamide] | 4700 nM and 5470 nM | 
Cc1ccc(C(NC(=O)CNCc2ccccc2)c2cc(Cl)c3cccnc3c2O)cc1 (stereo not drawn) [Example 60, N^2-benzyl-N^1-[(5-chloro-8-hydroxyquinolin-7-yl)(4-methylphenyl)methyl]glycinamide] | 1830 nM | 
Cc1ccc(OCC(=O)NC(c2ccccc2)c2ccc3cccnc3c2O)cc1 (stereo not drawn) [N-[(8-hydroxyquinolin-7-yl)(phenyl)methyl]-2-(4-methylphenoxy)acetamide] | 2470 nM | 
O=C(COc1ccccc1)NC(c1ccc(O)cc1Cl)c1cc(Cl)c2cccnc2c1O (stereo not drawn) [N-[(2-chloro-4-hydroxyphenyl)(5-chloro-8-hydroxyquinolin-7-yl)methyl]-2-phenoxyacetamide] | 1940 nM | 
O=C(NC(c1ccccc1)c1cc(Cl)c2cccnc2c1O)c1ccccc1 (stereo not drawn) [N-[(5-chloro-8-hydroxyquinolin-7-yl)(phenyl)methyl]benzamide] | 1310 nM | 
COc1cccc(C(NC(=O)COc2ccccc2)c2cc(Cl)c3cccnc3c2O)c1 (stereo not drawn) [N-[(5-chloro-8-hydroxyquinolin-7-yl)(3-methoxyphenyl)methyl]-2-phenoxyacetamide] | 1840 nM | 
